Source: PMC12656327 (Pharmaceutics, 2025)
“And” between values parts separate entries of the source, which are not always exact repeats. Identical values can stand only once. Like-named read-outs stand apart in the source and are kept apart here.

How the values were obtained:
[1] = test system: JU77 (human malignant mesothelioma) cells; experiment: cells; details: 72 h, read-out: IC50 JU77
[2] = test system: JU77 (human malignant mesothelioma) cells; details: for SF JU77 (selectivity factor): ratio of the IC50 value in MRC-5 to that in JU77
[3] = NO release, Griess assay (phosphate buffer pH 7.4 with L-cysteine); assay type: physicochemical; details: for NO Released (%) 1 h: 1 h incubation, expressed as % NO2− (μmol/μmol), Griess assay, physiological conditions, furoxan 100 µM; for NO Released (%) 24 h: 24 h incubation; for NO Released (%) 24 h / NO Released (%) 48 h: % NO2− (μmol/μmol); for NO Released (%) 48 h: 48 h incubation; for NO-donor ranking (in words): among all tested compounds
[4] = test system: AB1 (mouse malignant mesothelioma) cells; experiment: cells; details: AB1, 72 h, read-out: IC50 AB1
AB1 cells [5] = experiment: NO release in vitro in AB1 cells (Griess reagent); assay type: cell-based, mouse; details: 25 μM, 24 h, relative to untreated cells
AB1 and JU77 cell lines [6] = experiment: cells; details: MPM, 72 h, read-out: IC50 (cytotoxicity) in both MPM cell lines
[7] = test system: MRC-5 (human embryonic lung fibroblast) cells; experiment: MTT cytotoxicity, MRC-5 cells, 72 h; assay type: cell-based; details: MRC5, 72 h exposure
AB1 cells [8] = experiment: JC-1 assay of mitochondrial membrane potential; assay type: cell-based, mouse; details: for JC-1 Aggregates / JC-1 Monomers: representative dot plot; for mitochondrial membrane depolarization (in words): 25 µM
AB1 cells [9] = experiment: Annexin V/PI assay, flow cytometry; assay type: cell-based, mouse; details: 25 µM, 24 h
[10] = test system: AB1 (mouse malignant mesothelioma) cells
[11] = test system: MRC-5 (human embryonic lung fibroblast) cells; set-up: method as in PMID 40006597; details: MTT, 72 h exposure; cited from earlier work
[12] = test system: JU77 (human malignant mesothelioma) cells; set-up: method as in PMID 40006597; details: MTT, 72 h exposure; cited from earlier work
[13] = test system: AB1 (mouse malignant mesothelioma) cells; set-up: method as in PMID 40006597; details: MTT, 72 h exposure; cited from earlier work
[14] = Stability in DMSO-d6 by 1H NMR spectroscopy; assay type: physicochemical; details: DMSO-d6, 1H NMR spectra after 1, 20, 48 and 120 h
Excerpt: For the synthesis of the target bis(1,2,4-oxadiazolyl)furoxans, we employed a synthetic approach based on the reaction of readily available furoxanylbis(amidoxime) 1c with in situ activated carboxylic acids, except for compound 2a, which was synthesized using orthoformate in the presence of boron trifluoride etherate. Specifically, activation of the corresponding carboxylic acid with 1,1′-carbonyldiimidazole, followed by the addition of bis(amidoxime) 1c and 1,4-diazabicyclo [2.2.2]octane (DABCO) as a base to promote the heterocyclization step, afforded the desired heterocyclic assemblies 2b–l (Scheme 1, Figures S1–S24). […] The stability of the synthesized heterocyclic compounds was further examined in DMSO-d6 via ^1H NMR spectroscopy. The representative compound 2j was completely stable in solution for at least 120 h. The corresponding set of ^1H NMR spectra recorded for 2j after 1, 20, 48, and 120 h is provided in the (supporting information (SI) Figure S25).
Figure S25. Stability of the representative compound 2j for 1 h, 20 h, 48 h and 120 h in DMSO -[d6] according to 1H NMR spectroscopy.
(1 picture or pasted object on this page, not shown here)

[15] = set-up: method as in PMID 40006597; details: % NO2− (μmol/μmol), cited from earlier work; for NO Released (%) 1 h: 1 h incubation; for NO Released (%) 24 h: 24 h incubation; for NO Released (%) 48 h: 48 h incubation
AB1 and JU77 cell lines [16] = test system: AB1 and JU77 cell lines
[17] = positive control, 20 μM, 30 min

| Compound | IC50 [1] [µM] | SF JU77 (selectivity factor) [2] | NO Released (%) 1 h [3] [%] | NO Released (%) 24 h [3] [%] | NO Released (%) 48 h [3] [%] | IC50 [4] [µM] | intracellular NO release (in words) (AB1 cells [5]) | IC50 [7] [µM] | also measured |
| --- | --- | --- | --- | --- | --- | --- | --- | --- | --- |
| O=[N+]([O-])c1ccccc1-c1nc(-c2no[n+]([O-])c2-c2noc(-c3ccccc3[N+](=O)[O-])n2)no1 [2d] | 3 ± 0.4 | 5.7 | 54 ± 14 | 69 ± 14 | 72 ± 13 | 11.2 ± 2 | highest levels of intracellular NO | 16.8 ± 5.7 | IC50 (AB1 and JU77 cell lines [6]): 3 to 14 µM |
| O=[N+]([O-])c1ccc(-c2nc(-c3no[n+]([O-])c3-c3noc(-c4ccc([N+](=O)[O-])cc4)n3)no2)cc1 [2b] | > 25 |  | 38 ± 3 | 46 ± 1 | 48 ± 2 | > 25 | minimal NO release | > 25 |  |
| N#CC(C#N)=NNc1cccc(Cl)c1 [CCCP, carbonyl cyanide 3-chlorophenylhydrazone, reference compound] |  |  |  |  |  |  |  |  | JC-1 Aggregates (AB1 cells [8]; [17]): 30.1%; JC-1 Monomers (AB1 cells [8]; [17]): 69.9% |
| [O-][n+]1onc(-c2noc(-c3ccccc3Cl)n2)c1-c1noc(-c2ccccc2Cl)n1 [2k] | 4.9 ± 1.2 |  | 37 ± 5 | 41 ± 8 | 43 ± 7 | 15.5 ± 3 | low | 7.8 ± 2.3 | induction of apoptosis/necrosis (in words) (AB1 cells [9]): did not induce significant cancer cell death; mitochondrial membrane depolarization (in words) (AB1 cells [8]; 24 h): least mitochondrial damage; JC-1 Aggregates (AB1 cells [8]; 25 μM, 24 h): 96.3%; JC-1 Monomers (AB1 cells [8]; 25 μM, 24 h): 3.7% |
| [O-][n+]1onc(-c2noc(-c3ccncc3)n2)c1-c1noc(-c2ccncc2)n1 [2f] | 14.1 ± 4.1 | 2.1 | 71 ± 15 | 94 ± 15 | 103 ± 14 | 8.5 ± 2.1 | highest levels of intracellular NO and high | 29.9 ± 1.6 | decrease of cytotoxicity in JU77 cells relative to 2a [2]: 1.6 fold; NO-donor ranking (in words) [3]: most effective NO donors; total amount of released NO ([3]; with longer incubation periods): exceeded 100%; IC50 (AB1 and JU77 cell lines [6]): 3 to 14 µM; increase of cytotoxicity in AB1 cells relative to 2a [10]: 1.4 fold; mitochondrial membrane depolarization (in words) (AB1 cells [8]; 24 h): markedly higher and relatively comparable levels of depolarization; JC-1 Aggregates (AB1 cells [8]; 25 μM, 24 h): 87.6%; JC-1 Monomers (AB1 cells [8]; 25 μM, 24 h): 12.4% |
| O=[N+]([O-])c1cccc(-c2nc(-c3no[n+]([O-])c3-c3noc(-c4cccc([N+](=O)[O-])c4)n3)no2)c1 [2c] | 7.3 ± 1 | 3.8 | 37 ± 1 | 49 ± 2 | 63 ± 2 | 19.9 ± 4.3 |  | 27.9 ± 4.6 |  |
| N.N.[Cl][Pt][Cl] [Cisplatin, cisplatin] |  |  |  |  |  |  |  |  | IC50 [11]: 3.1 ± 1.2 µM; IC50 [12]: 4.2 ± 0.5 µM; IC50 [13]: 5.8 ± 1 µM |
| COc1ccc(-c2nc(-c3no[n+]([O-])c3-c3noc(-c4ccc(OC)c(OC)c4)n3)no2)cc1OC [2j] | 19.7 ± 2.1 | 1.3 | 35 ± 2 | 37 ± 3 | 39 ± 5 | 21.7 ± 4.5 |  | 25.7 ± 8.7 | time completely stable in solution [14]: at least 120 h |
| [O-][n+]1onc(-c2noc(-c3ccccc3)n2)c1-c1noc(-c2ccccc2)n1 [2e] | 10.5 ± 0.5 | 1.6 | 51 ± 10 | 61 ± 12 | 64 ± 2 | 33.9 ± 3.4 | minimal NO release | 17.7 ± 3.8 | cytotoxic effects in the AB1 cell line (in words) [10]: no cytotoxic effects |
| NC(=O)c1c(CO)no[n+]1[O-] [CAS-1609, 3-carbamoyl-4-(hydroxymethyl)furoxan] |  |  |  |  |  |  |  |  | NO Released (%) 1 h [15]: 27% and 27 ± 3%; NO Released (%) 24 h [15]: 68 ± 6%; NO Released (%) 48 h [15]: 73 ± 6% |
| CCOc1no[n+]([O-])c1S(=O)(=O)c1ccccc1 [CHF-2363, 4-ethoxy-3-phenylsulfonylfuroxan] |  |  |  |  |  |  |  |  | NO Released (%) 1 h [15]: 26% and 26 ± 10%; NO Released (%) 24 h [15]: 71 ± 4%; NO Released (%) 48 h [15]: 77 ± 9% |
| COc1ccc(-c2nc(-c3no[n+]([O-])c3-c3noc(-c4ccc(OC)cc4)n3)no2)cc1 [2i] | > 25 |  | 75 ± 1 | 78 ± 5 | 89 ± 3 | > 25 | minimal NO release | > 25 | cytotoxicity (in words) (AB1 and JU77 cell lines [16]): lacked cytotoxic effects; NO-donor ranking (in words) [3]: most effective NO donors; cytotoxic effects in the AB1 cell line (in words) [10]: no cytotoxic effects |
| Cc1ccc(-c2nc(-c3no[n+]([O-])c3-c3noc(-c4ccc(C)cc4)n3)no2)cc1 [2h] | 16 ± 3.9 | >1.6 | 37 ± 5 | 52 ± 1 | 56 ± 1 | > 25 | minimal NO release | > 25 | cytotoxicity (in words) (AB1 and JU77 cell lines [16]): lacked cytotoxic effects; cytotoxic effects in the AB1 cell line (in words) [10]: no cytotoxic effects |
